Patent US10670605B2, “Cysteine reactive probes and uses thereof” (The Scripps Research Institute, priority 2015, dated 2020)

Legend:
Assay in all cases: Competitive isoTOP-ABPP in situ (fragment-treated cells)
Format in all cases: cell-based
[1] = target: T1, cysteines in MDA-MB-231 and Ramos cells (Homo sapiens, UniProt Q9NYL9)
T1 sequence (Q9NYL9 1-352): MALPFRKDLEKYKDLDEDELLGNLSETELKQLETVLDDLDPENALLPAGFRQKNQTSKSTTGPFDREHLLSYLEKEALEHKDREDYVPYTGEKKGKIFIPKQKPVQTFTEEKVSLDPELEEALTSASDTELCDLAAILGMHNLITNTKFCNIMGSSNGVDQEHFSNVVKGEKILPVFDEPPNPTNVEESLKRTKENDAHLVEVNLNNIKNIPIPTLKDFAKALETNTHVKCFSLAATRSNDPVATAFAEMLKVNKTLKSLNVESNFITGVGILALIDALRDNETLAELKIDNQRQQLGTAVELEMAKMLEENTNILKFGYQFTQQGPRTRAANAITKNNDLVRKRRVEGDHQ

[2] = target: cysteines in MDA-MB-231 and Ramos cells (Homo sapiens, UniProt Q02252)
[3] = target: cysteines in MDA-MB-231 and Ramos cells (Homo sapiens, UniProt Q9Y696)
[4] = target: cysteines in MDA-MB-231 and Ramos cells (Homo sapiens, UniProt O00299)
[5] = target: cysteines in MDA-MB-231 and Ramos cells (Homo sapiens, UniProt Q9BUH6)
[6] = target: T2, cysteines in MDA-MB-231 and Ramos cells (Homo sapiens, UniProt P50570)
T2 sequence (P50570 1-870): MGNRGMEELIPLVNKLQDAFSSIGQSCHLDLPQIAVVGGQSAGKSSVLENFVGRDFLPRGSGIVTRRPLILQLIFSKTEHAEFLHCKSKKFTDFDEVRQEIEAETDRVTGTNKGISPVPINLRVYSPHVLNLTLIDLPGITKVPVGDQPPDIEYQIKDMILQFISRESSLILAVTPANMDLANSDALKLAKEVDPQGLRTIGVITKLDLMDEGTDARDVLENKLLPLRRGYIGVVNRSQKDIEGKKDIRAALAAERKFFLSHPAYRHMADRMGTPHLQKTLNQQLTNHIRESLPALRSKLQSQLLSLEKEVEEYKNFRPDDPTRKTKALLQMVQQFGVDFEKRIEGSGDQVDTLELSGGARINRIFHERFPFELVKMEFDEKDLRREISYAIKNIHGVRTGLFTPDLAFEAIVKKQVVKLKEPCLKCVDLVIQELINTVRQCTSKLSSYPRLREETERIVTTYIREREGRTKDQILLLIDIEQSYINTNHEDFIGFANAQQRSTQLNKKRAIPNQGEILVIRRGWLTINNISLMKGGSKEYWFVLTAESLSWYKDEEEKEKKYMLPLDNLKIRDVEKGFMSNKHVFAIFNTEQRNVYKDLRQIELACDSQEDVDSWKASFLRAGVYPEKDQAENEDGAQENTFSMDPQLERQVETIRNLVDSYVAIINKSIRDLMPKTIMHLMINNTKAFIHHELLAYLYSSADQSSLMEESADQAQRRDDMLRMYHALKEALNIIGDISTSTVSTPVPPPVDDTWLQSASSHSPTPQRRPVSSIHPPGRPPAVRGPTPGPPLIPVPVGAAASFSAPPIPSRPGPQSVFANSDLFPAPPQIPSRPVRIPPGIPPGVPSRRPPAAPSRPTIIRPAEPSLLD

[7] = target: T3, cysteines in MDA-MB-231 and Ramos cells (Homo sapiens, UniProt Q99439)
T3 sequence (Q99439 1-309): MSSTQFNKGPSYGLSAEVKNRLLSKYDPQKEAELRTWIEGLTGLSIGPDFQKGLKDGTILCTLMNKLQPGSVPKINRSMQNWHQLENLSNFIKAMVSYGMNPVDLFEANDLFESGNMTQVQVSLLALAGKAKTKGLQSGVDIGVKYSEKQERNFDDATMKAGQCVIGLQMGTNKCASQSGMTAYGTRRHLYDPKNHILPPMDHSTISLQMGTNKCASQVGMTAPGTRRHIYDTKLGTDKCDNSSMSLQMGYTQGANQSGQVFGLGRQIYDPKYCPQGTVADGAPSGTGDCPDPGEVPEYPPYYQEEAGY

[8] = target: T4, cysteines in MDA-MB-231 and Ramos cells (Homo sapiens, UniProt Q96T76)
T4 sequence (Q96T76 1-1030): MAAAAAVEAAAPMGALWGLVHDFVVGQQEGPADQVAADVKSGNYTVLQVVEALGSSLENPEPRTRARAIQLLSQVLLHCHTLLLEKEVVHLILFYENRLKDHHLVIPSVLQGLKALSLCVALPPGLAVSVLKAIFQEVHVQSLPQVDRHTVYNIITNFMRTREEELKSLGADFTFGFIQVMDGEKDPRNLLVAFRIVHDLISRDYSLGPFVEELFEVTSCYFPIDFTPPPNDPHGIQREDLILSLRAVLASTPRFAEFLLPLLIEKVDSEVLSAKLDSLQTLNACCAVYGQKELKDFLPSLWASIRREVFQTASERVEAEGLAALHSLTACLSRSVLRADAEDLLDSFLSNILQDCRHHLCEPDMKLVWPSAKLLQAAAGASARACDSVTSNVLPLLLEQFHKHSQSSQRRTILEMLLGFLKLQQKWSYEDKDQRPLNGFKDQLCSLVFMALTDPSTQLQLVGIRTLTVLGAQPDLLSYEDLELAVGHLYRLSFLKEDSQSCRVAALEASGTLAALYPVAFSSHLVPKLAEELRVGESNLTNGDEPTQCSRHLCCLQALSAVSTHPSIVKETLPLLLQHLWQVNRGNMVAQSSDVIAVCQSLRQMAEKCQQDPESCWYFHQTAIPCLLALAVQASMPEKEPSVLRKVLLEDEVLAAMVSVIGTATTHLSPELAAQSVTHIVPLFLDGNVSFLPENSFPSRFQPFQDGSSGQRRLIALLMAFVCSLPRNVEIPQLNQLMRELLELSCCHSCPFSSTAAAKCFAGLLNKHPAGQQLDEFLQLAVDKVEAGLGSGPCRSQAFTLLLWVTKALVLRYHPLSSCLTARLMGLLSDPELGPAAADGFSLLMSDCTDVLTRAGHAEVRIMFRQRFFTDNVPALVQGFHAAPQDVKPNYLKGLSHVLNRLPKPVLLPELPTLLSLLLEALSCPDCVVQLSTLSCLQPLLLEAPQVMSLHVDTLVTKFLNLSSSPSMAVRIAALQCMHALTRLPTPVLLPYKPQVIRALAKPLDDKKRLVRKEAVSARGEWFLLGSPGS

Sequence of cysteines in MDA-MB-231 and Ramos cells (Homo sapiens, UniProt Q9Y696) (Q9Y696 whole entry): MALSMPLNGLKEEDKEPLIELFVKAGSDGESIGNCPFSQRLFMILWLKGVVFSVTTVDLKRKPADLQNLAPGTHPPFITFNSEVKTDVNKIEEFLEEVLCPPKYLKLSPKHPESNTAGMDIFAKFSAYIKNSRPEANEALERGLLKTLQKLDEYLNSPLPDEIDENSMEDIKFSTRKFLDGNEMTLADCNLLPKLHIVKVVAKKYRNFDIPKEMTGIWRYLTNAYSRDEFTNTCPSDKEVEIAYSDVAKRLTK
Sequence of cysteines in MDA-MB-231 and Ramos cells (Homo sapiens, UniProt Q9BUH6) (Q9BUH6 whole entry): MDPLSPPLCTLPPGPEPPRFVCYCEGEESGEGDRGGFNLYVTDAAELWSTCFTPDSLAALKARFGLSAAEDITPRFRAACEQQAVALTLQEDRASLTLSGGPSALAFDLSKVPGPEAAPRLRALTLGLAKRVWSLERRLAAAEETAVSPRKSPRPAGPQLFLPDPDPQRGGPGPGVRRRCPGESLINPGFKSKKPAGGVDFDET
Sequence of cysteines in MDA-MB-231 and Ramos cells (Homo sapiens, UniProt Q02252) (Q02252 34-535): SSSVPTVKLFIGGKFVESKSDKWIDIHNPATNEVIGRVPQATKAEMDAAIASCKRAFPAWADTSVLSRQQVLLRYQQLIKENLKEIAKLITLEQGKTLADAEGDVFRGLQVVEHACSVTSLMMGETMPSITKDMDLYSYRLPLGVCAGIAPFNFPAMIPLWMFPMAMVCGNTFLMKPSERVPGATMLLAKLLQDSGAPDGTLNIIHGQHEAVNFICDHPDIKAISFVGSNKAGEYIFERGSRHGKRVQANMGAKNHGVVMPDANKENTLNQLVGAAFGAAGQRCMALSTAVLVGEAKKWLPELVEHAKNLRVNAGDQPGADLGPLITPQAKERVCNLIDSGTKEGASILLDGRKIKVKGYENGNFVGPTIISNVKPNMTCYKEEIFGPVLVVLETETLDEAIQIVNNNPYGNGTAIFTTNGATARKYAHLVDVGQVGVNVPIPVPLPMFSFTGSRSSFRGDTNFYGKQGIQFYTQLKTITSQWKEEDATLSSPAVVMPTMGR

Row | isoTOP-ABPP reactivity Q9NYL9_C132 TMOD3 ([1]; 100 μM in situ 231) | isoTOP-ABPP reactivity Q02252_C317 ALDH6A1 ([2]; 100 μM in situ 231) | isoTOP-ABPP reactivity Q9Y696_C35 CLIC4 ([3]; 100 μM in situ 231) | isoTOP-ABPP reactivity O00299_C24 CLIC1 ([4]; 100 μM in situ 231) | isoTOP-ABPP reactivity Q9BUH6_C180 C9orf142 ([5]; 100 μM in situ 231) | isoTOP-ABPP reactivity P50570_C27 DNM2 ([6]; 100 μM in situ 231) | isoTOP-ABPP reactivity Q99439_C164 CNN2 ([7]; 100 μM in situ 231) | isoTOP-ABPP reactivity Q96T76_C848 MMS19 ([8]; 100 μM in situ 231) | isoTOP-ABPP ratio Q9NYL9_C132 ([1]; 200 μM, insitu, ramos) | isoTOP-ABPP ratio Q02252_C317 ([2]; 200 μM, insitu, ramos) | isoTOP-ABPP ratio Q9Y696_C35 ([3]; 200 μM, insitu, ramos) | isoTOP-ABPP ratio O00299_C24 ([4]; 200 μM, insitu, ramos) | isoTOP-ABPP ratio Q9BUH6_C180 ([5]; 200 μM, insitu, ramos) | isoTOP-ABPP ratio P50570_C27 ([6]; 200 μM, insitu, ramos) | isoTOP-ABPP ratio Q99439_C164 ([7]; 200 μM, insitu, ramos) | isoTOP-ABPP ratio Q96T76_C848 ([8]; 200 μM, insitu, ramos) | SMILES
1 | 0.8 | 14.4 | 20.0 | 20.0 | 1.2 | 2.2 | 1.5 | 20.0 | – | – | – | – | – | – | – | – | COc1ccc(C2CC(c3cccs3)=NN2C(=O)CCl)cc1 (stereo not shown) [compound 4]
2 | – | – | – | – | – | – | – | – | 0.9 | 1.2 | 1.0 | 1.1 | 1.5 | 1.0 | 1.0 | 1.0 | O=C(CCl)N1CCN(CC(=O)N2CCOCC2)CC1 [compound 29]
